Assay results taken from ChEMBL document CHEMBL4837206, “Synthesis and biological evaluation of novel isoxazole-piperazine hybrids as potential anti-cancer agents with inhibitory effect on liver cancer stem cells” (Eur J Med Chem, 2021).
Calls of active or inactive are those of the source. The calls are words filed in the database; no cut-off is given here.

Tests used:
[1] = system: MCF7; experiment: Antiproliferative activity against human MCF7 cells assessed as reduction in cell viability measured after 72 hrs by SRB assay; assay type: functional, cell-based; conditions: MCF7, 72 h
[2] = system: Huh-7; experiment: Antiproliferative activity against human Huh-7 cells assessed as reduction in cell viability measured after 72 hrs by SRB assay; assay type: functional, cell-based; conditions: Huh-7, 72 h
[3] = system: Mahlavu; experiment: Antiproliferative activity against human Mahlavu cells assessed as reduction in cell viability measured after 72 hrs by SRB assay; assay type: functional, cell-based
[4] = system: HepG2; experiment: Antiproliferative activity against human HepG2 cells assessed as reduction in cell viability measured after 90 hrs by RT-CES analysis; assay type: functional, cell-based
[5] = system: Mahlavu; experiment: Antiproliferative activity against human Mahlavu cells assessed as reduction in cell viability measured after 90 hrs by RT-CES analysis; assay type: functional, cell-based
[6] = system: HepG2; experiment: Antiproliferative activity against human HepG2 cells assessed as reduction in cell viability measured for 180 hrs by RT-CES analysis; assay type: functional, cell-based; conditions: dose 2.5-10 µM
[7] = system: Mahlavu; experiment: Antiproliferative activity against human Mahlavu cells assessed as reduction in cell viability measured for 180 hrs by RT-CES analysis; assay type: functional, cell-based; conditions: dose 2.5-10 µM
[8] = system: SNU-475; experiment: Antiproliferative activity against human SNU-475 cells assessed as reduction in cell viability measured for 180 hrs by RT-CES analysis; assay type: functional, cell-based; conditions: dose 2.5-10 µM
[9] = system: Mahlavu; experiment: Cell cycle arrest in human Mahlavu cells assessed as increase in accumulation of cells at subG1 phase at 5 uM measured after 48 hrs by propidium iodide staining based flow cytometric analysis; assay type: functional
[10] = system: SNU-475; experiment: Cell cycle arrest in human SNU-475 cells assessed as increase in accumulation of cells at S phase at 5 uM measured after 48 hrs by propidium iodide staining based flow cytometric analysis; assay type: functional
[11] = system: HepG2; experiment: Cell cycle arrest in human HepG2 cells assessed as increase in accumulation of cells at G0/G1 phase at 5 uM measured after 48 hrs by propidium iodide staining based flow cytometric analysis; assay type: functional
[12] = system: Mahlavu; experiment: Induction of apoptosis in human Mahlavu cells at 5 uM measured after 72 hrs by Annexin V-FITC/propidium iodide staining based flow cytometric analysis; assay type: functional, cell-based
[13] = system: SNU-475; experiment: Induction of apoptosis in human SNU-475 cells at 5 uM measured after 72 hrs by Annexin V-FITC/propidium iodide staining based flow cytometric analysis; assay type: functional, cell-based
[14] = system: Huh-7; experiment: Induction of apoptosis in human Huh-7 cells at 5 uM measured after 72 hrs by Annexin V-FITC/propidium iodide staining based flow cytometric analysis; assay type: functional, cell-based
[15] = system: HepG2; experiment: Induction of apoptosis in human HepG2 cells at 5 uM measured after 72 hrs by Annexin V-FITC/propidium iodide staining based flow cytometric analysis; assay type: functional, cell-based
[16] = system: Mahlavu; experiment: Induction of apoptosis in human Mahlavu cells assessed as chromatin condensation measured after 48 hrs by Hoechst33258 staining based inverted fluorescent microscopic method; assay type: functional, cell-based
[17] = system: Mahlavu; experiment: Induction of apoptosis in human Mahlavu cells assessed as nuclear fragmentation measured after 48 hrs by Hoechst33258 staining based inverted fluorescent microscopic method; assay type: functional, cell-based
[18] = system: SNU-475; experiment: Activation of p53 harboring A239G/T275C/A288G mutant in human SNU-475 cells assessed as upregulation of p53 phosphorylation at Ser15 residue at 5 uM incubated for 72 hrs by western blot analysis; assay type: cell-based; conditions: filed as activator
[19] = system: Mahlavu; experiment: Activation of p53 harboring G249T mutant in human Mahlavu cells assessed as upregulation of p53 acetylation at Lys382 residue at 5 uM incubated for 72 hrs by western blot analysis; assay type: cell-based; conditions: filed as activator
[20] = system: Huh-7; experiment: Activation of p53 harboring C220T mutant in human Huh-7 cells at 5 uM measured after 72 hrs by Western blot analysis; assay type: cell-based
[21] = biological target: Cellular tumor antigen p53 (Homo sapiens) (UniProt P04637); experiment: Activation of p53 in human HepG2 cells at 5 uM measured after 72 hrs by Western blot analysis; assay type: cell-based
Chain of Cellular tumor antigen p53 (Homo sapiens) (P04637 whole entry, looked up): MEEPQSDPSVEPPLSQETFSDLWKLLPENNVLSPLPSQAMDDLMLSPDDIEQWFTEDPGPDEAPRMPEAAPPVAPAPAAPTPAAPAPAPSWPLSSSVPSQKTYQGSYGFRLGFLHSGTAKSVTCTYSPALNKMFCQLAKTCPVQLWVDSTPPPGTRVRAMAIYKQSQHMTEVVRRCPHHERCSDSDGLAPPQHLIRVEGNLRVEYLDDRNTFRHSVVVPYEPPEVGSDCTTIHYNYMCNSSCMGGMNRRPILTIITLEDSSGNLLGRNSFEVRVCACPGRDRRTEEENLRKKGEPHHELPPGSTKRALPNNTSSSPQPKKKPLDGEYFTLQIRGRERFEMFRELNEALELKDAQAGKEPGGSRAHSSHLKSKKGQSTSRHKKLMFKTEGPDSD

[22] = system: Mahlavu; experiment: Activation of p53 harboring G249T mutant in human Mahlavu cells assessed as upregulation of p21 protein expression at 5 uM incubated for 72 hrs by western blot analysis; assay type: cell-based
[23] = biological target: T1, Mitogen-activated protein kinase; ERK1/ERK2 (Homo sapiens) (UniProt P27361+P28482); experiment: Inhibition of ERK1/2 phosphorylation at T202/Y204 residue in human Mahlavu cells at 5 uM measured after 72 hrs by Western blot analysis; assay type: cell-based
T1 sequence (P27361 whole entry, looked up): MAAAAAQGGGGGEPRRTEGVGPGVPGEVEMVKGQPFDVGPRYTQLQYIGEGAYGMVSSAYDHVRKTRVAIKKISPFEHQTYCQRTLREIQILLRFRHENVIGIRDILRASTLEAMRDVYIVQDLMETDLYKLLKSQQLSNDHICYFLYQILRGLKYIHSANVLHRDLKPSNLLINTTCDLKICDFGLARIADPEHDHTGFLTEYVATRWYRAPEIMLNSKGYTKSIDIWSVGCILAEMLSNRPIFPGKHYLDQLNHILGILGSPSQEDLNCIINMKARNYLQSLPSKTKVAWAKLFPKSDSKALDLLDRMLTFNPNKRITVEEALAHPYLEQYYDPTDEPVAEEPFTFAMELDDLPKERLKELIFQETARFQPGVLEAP
T1 sequence (P28482 whole entry, looked up): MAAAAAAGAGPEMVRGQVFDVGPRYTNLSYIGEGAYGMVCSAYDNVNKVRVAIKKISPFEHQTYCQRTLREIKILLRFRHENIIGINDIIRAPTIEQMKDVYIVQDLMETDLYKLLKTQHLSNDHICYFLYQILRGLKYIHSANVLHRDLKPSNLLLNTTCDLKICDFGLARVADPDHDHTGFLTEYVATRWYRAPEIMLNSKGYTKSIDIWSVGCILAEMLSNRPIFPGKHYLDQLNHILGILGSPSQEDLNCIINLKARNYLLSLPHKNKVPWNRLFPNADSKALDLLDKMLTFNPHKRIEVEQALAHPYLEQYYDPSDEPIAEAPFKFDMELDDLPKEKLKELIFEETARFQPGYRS

[24] = system: Huh-7; experiment: Inhibition of cell stemness in human Huh-7 cells assessed as CD133+/EpCAM+ expression at 10 uM measured after 72 hrs by flow cytometry analysis (reference value: 29.92%); assay type: functional; parameters: scale not given: the % may be the effect or the level left
[25] = system: Huh-7; experiment: Inhibition of cell stemness in human Huh-7 cells assessed as decrease in NANOG mRNA level at 10 uM measured after 72 hrs by RT-qPCR analysis; assay type: functional, cell-based
[26] = system: Mahlavu; experiment: Inhibition of cell stemness in human Mahlavu cells assessed as decrease in NANOG level at 10 uM measured after 72 hrs by flow cytometry analysis; assay type: functional, cell-based
[27] = system: Huh-7; experiment: Inhibition of cell stemness in human Huh-7 cells assessed as decrease in NANOG level at 10 uM measured after 72 hrs by flow cytometry analysis; assay type: functional, cell-based
[28] = system: Huh-7; experiment: Inhibition of cell stemness in human Huh-7 cells assessed as reduction in tumor spheres count at 10 uM incubated for 72 hrs followed by incubation in sphere formation medium for 7 days by microscopic analysis; assay type: functional, cell-based; conditions: time 10.0 day
[29] = system: Huh-7; experiment: Inhibition of cell stemness in human Huh-7 cells assessed as reduction in size of tumor spheres at 10 uM incubated for 72 hrs followed by incubation in sphere formation medium for 14 days by microscopic analysis; assay type: functional, cell-based; conditions: time 17.0 day
[30] = system: Huh-7; experiment: Inhibition of cell stemness in human Huh-7 cells assessed as reduction in tumor spheres count at 10 uM incubated for 72 hrs followed by incubation in sphere formation medium for 14 days by microscopic analysis; assay type: functional, cell-based; conditions: time 17.0 day
[31] = system: Mahlavu; experiment: Induction of apoptosis in human Mahlavu cells assessed as apoptotic body formation measured after 48 hrs by Hoechst33258 staining based inverted fluorescent microscopic method; assay type: functional, cell-based
[32] = system: SNU-475; experiment: Induction of apoptosis in human SNU-475 cells assessed as apoptotic body formation measured after 48 hrs by Hoechst33258 staining based inverted fluorescent microscopic method; assay type: functional, cell-based
[33] = system: SNU-475; experiment: Induction of apoptosis in human SNU-475 cells assessed as chromatin condensation measured after 48 hrs by Hoechst33258 staining based inverted fluorescent microscopic method; assay type: functional, cell-based
[34] = system: SNU-475; experiment: Induction of apoptosis in human SNU-475 cells assessed as nuclear fragmentation measured after 48 hrs by Hoechst33258 staining based inverted fluorescent microscopic method; assay type: functional, cell-based
[35] = system: Huh-7; experiment: Induction of apoptosis in human Huh-7 cells assessed as apoptotic body formation measured after 48 hrs by Hoechst33258 staining based inverted fluorescent microscopic method; assay type: functional, cell-based
[36] = system: Huh-7; experiment: Induction of apoptosis in human Huh-7 cells assessed as chromatin condensation measured after 48 hrs by Hoechst33258 staining based inverted fluorescent microscopic method; assay type: functional, cell-based
[37] = system: HepG2; experiment: Induction of apoptosis in human HepG2 cells assessed as apoptotic body formation measured after 48 hrs by Hoechst33258 staining based inverted fluorescent microscopic method; assay type: functional, cell-based
[38] = system: HepG2; experiment: Induction of apoptosis in human HepG2 cells assessed as chromatin condensation measured after 48 hrs by Hoechst33258 staining based inverted fluorescent microscopic method; assay type: functional, cell-based
[39] = biological target: T1, Mitogen-activated protein kinase; ERK1/ERK2 (Homo sapiens); experiment: Downregulation of ERK1/2 phosphorylation at T202/Y204 residue in human SNU-475 cells at 5 uM measured after 72 hrs by Western blot analysis; assay type: cell-based

FC(F)(F)c1ccc(CN2CCN(Cc3cc(-c4ccc(OCc5ccccc5)cc4)on3)CC2)cc1
IC50 [1]: 2900 nM
IC50 [2]: 1700 nM
IC50 [3]: 11700 nM
Activity [4]: Active
Activity [5]: Active
Activity [6]: Dose-Dependent Effect
Activity [7]: Dose-Dependent Effect
Activity [8]: Dose-Dependent Effect
Activity [9]: Active
Activity [10]: Active
Activity [11]: Active
Activity [12]: Active
Activity [13]: Active
Activity [14]: Active
Activity [15]: Active
Activity [16]: Active
Activity [17]: Active
Activity [18]: Active
Activity [19]: Active
Activity [20]: inactive
Activity [21]: inactive
Activity [22]: inactive
inhibition [23]: Active
Activity [24]: 23.68%
inhibition [25]: Active
inhibition [26]: Active
inhibition [27]: Active
inhibition [28]: Active
inhibition [29]: Active
inhibition [30]: Active
Activity [31]: Active
Activity [32]: Active
Activity [33]: Active
Activity [34]: Active
Activity [35]: Active
Activity [36]: Active
Activity [37]: Active
Activity [38]: Active
inhibition [39]: Active

N#Cc1cccc(COc2ccc(-c3cc(CN4CCN(Cc5ccc(C(F)(F)F)cc5)CC4)no3)cc2F)c1
IC50 [1]: 380 nM
IC50 [2]: 90 nM
IC50 [3]: 500 nM
Activity [4]: Active
Activity [5]: Active
Activity [6]: Dose-Dependent Effect
Activity [7]: Dose-Dependent Effect
Activity [8]: Dose-Dependent Effect
Activity [9]: Active
Activity [10]: Active
Activity [11]: Active
Activity [12]: Active
Activity [13]: Active
Activity [14]: Active
Activity [15]: Active
Activity [16]: Active
Activity [17]: Active
Activity [18]: Active
Activity [19]: Active
Activity [20]: inactive
Activity [21]: inactive
Activity [22]: inactive
inhibition [23]: Active
Activity [24]: 13.12%
inhibition [25]: Active
inhibition [26]: Active
inhibition [27]: Active
inhibition [28]: Active
inhibition [29]: Active
inhibition [30]: Active
Activity [31]: Active
Activity [32]: Active
Activity [33]: Active
Activity [34]: Active
Activity [35]: Active
Activity [36]: Active
Activity [37]: Active
Activity [38]: Active
inhibition [39]: Active
